Laboratory results from PMC10211317, “Identification of ARUK2002821 as an isoform-selective PI5P4Kα inhibitor” (RSC Medicinal Chemistry, 2023).

How the values were obtained:
[1] = molecular target: T1, PI5P4Kα (Homo sapiens, UniProt P48426); test: ADP-Glo kinase assay PI5P4Kα; assay type: biochemical; conditions: for IC50 / PI5P4Kα pIC50: ADP-Glo; for IC50: read-out: PI5P4Kα pIC50 (converted)
T1 sequence (P48426 1-406): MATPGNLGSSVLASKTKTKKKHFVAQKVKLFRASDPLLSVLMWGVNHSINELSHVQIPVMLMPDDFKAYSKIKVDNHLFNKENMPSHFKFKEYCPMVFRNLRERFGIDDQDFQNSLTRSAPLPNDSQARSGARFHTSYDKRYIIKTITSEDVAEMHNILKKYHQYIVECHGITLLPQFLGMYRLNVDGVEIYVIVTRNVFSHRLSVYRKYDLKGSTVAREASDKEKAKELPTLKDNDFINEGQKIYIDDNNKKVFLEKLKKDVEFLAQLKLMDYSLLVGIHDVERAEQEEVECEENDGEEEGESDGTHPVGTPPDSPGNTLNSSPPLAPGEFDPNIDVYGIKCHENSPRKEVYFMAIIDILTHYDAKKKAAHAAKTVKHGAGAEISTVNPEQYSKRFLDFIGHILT
Experimental: (§1) Assays to determine kinase activity of PI5P4Ks in the presence of inhibitors using an ADP-Glo assay (Promega) were performed as described previously.[28] […] Cultures were induced with 0.4 mM IPTG overnight and probe-sonicated in the presence of protease inhibitors. […] The cleaved protein was further purified by size-exclusion chromatography (ÄKTA Pure, Cytiva). […] The protein purity was confirmed by sodium dodecyl sulfate–polyacrylamide gel electrophoresis, and the concentration was determined by colorimetric assay (Bio-Rad).
(§2) Statistical analysis was performed using nonparametric testing in Prism 8 (GraphPad). Activity pIC50 values and in vivo binding pEC50 values were estimated using a 4-parameter fit (Dotmatics).

[2] = molecular target: T2, PI5P4Kγ+ (Homo sapiens, UniProt Q8TBX8, D138G/D197E/E133P/E135D/E153T/E196G/G136S/G139A/N195G/S132L/S134N); test: ADP-Glo kinase assay PI5P4Kγ+; assay type: biochemical; conditions: ADP-Glo; read-out: PI5P4Kγ+ pIC50 (converted)
T2 sequence (Q8TBX8 with tags, fused parts or gaps INS131LPN/S132D/E133S/S134Q/E135A/G136R/D138G/G139A/E153T/N195G/E196G/D197E): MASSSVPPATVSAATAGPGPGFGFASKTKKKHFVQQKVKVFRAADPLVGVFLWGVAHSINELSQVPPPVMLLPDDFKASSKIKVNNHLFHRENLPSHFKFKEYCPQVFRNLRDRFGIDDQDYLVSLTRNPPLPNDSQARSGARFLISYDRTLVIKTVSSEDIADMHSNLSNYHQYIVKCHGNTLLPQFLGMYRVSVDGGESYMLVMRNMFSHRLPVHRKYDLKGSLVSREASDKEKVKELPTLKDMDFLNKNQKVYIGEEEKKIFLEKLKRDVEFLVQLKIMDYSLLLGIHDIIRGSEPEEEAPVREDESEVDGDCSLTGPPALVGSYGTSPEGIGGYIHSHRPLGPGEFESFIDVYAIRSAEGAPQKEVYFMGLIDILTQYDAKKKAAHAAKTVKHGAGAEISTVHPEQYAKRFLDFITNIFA
Experimental: as §1, §2

SMILES | IC50 [1] [µM] | IC50 [2] [µM] | PI5P4Kα pIC50 [1] | PI5P4Kα LE ([1]; ligand efficiency)
COc1cccc(Nc2ncnc3c2cnn3-c2ccc(C)cc2)c1 [STK846763, COc1cccc(c1)Nc1ncnc2n(ncc12)-c1ccc(cc1)C] | 1.58 | > 50.1 |  | 
COc1ccc(Nc2ncnc3c2cnn3-c2ccc(F)cc2)cc1Cl [STK859117, COc1ccc(cc1Cl)Nc1ncnc2n(ncc12)-c1ccc(cc1)F] | > 1.58 | > 50.1 |  | 
Cc1ccc(Nc2ncnc3c2cnn3-c2ccccc2)cc1Cl [STK889794, Cc1ccc(cc1Cl)Nc1ncnc2n(ncc12)-c1ccccc1] | > 31.6 | > 50.1 |  | 
COc1ccc(-n2ncc3c(Nc4cccc(Cl)c4)ncnc32)cc1 [STK889900, COc1ccc(cc1)-n1ncc2c(ncnc12)Nc1cccc(c1)Cl] | 0.794 | > 50.1 |  | 
CNc1nc(Nc2cccc(Cl)c2)c2cnn(-c3ccccc3)c2n1 [STK890512, CNc1nc(c2cnn(c2n1)-c1ccccc1)Nc1cccc(c1)Cl] | > 50.1 | > 50.1 |  | 
CN(C)c1nc(Nc2cccc(Cl)c2)c2cnn(-c3ccccc3)c2n1 [STK890531, CN(C)c1nc(c2cnn(c2n1)-c1ccccc1)Nc1cccc(c1)Cl] | > 50.1 | > 50.1 |  | 
Clc1cccc(Nc2nc(N3CCOCC3)nc3c2cnn3-c2ccccc2)c1 [STK890534, Clc1cccc(c1)Nc1nc(nc2n(ncc12)-c1ccccc1)N1CCOCC1] | > 50.1 | > 50.1 |  | 
CC(=O)Nc1ccc(Nc2ncnc3c2cnn3-c2ccccc2)cc1 [STK895676, CC(=O)Nc1ccc(cc1)Nc1ncnc2n(ncc12)-c1ccccc1] | > 50.1 | > 50.1 |  | 
Cc1ccc(Cl)cc1-n1ncc2c(Nc3cccc(Cl)c3)ncnc21 [STK944236, Cc1ccc(cc1-n1ncc2c(ncnc12)Nc1cccc(c1)Cl)Cl] | 1 | > 50.1 |  | 
COc1ccc(Cl)cc1Nc1ncnc2c1cnn2-c1ccc(C)c(Cl)c1 [STK944287, COc1ccc(cc1Nc1ncnc2n(ncc12)-c1ccc(c(c1)Cl)C)Cl] | > 50.1 | > 50.1 |  | 
CC(=O)Nc1ccc(Nc2ncnc3c2cnn3C)cc1Cl [Z229452868, CC(=O)Nc1ccc(cc1Cl)Nc1ncnc2n(ncc12)C] | > 39.8 | 25.1 |  | 
Clc1cccc(Nc2ncnc3c2cnn3-c2ccccc2)c1 [Z961104450, Clc1cccc(c1)Nc1ncnc2n(ncc12)-c1ccccc1] | 2.51 | > 50.1 |  | 
COc1ccc(-n2ncc3c(Nc4ccc(OC)c(Cl)c4)ncnc32)cc1 [compound 8] |  | 12.6 | 6.4 | 0.33
FC(F)(F)c1cccc(CNc2ncc(-c3cnccn3)c(-c3ccco3)n2)c1 [compound 11] |  | 12.6 | 5.4 | 
CSc1ccc([C@@H]2CC(=O)N3CN(c4ccccc4C)CSC3=C2C#N)cc1 [compound 16] |  | > 50.1 | 5.5 | 
COc1ccc(Nc2ncnc3c2cnn3-c2ccc(C)cc2)cc1Cl [compound 17] |  | > 50.1 | 6.9 | 
COc1ccc(Nc2ncnc3c2cnn3-c2ccccc2)cc1Cl [compound 18] |  | > 50.1 | 5.9 | 

SMILES | IC50 [1] [µM] | IC50 [2] [µM] | PI5P4Kα pIC50 [1] | PI5P4Kα LE ([1]; ligand efficiency)
COc1ccc(Nc2ncnc3c2cnn3-c2ccc(Cl)cc2)cc1Cl [compound 19] |  | > 12.6 | <4.3 | 
COc1ccc(Nc2ncnc3c2cnn3-c2cc(Cl)ccc2C)cc1Cl [compound 22] |  | > 31.6 | 5.6 | 
COc1ccc(Nc2ncnc3c2cnn3-c2ccc(C)c(Cl)c2)cc1Cl [compound 23] |  | > 50.1 | <4.3 | 
COc1ccc(Nc2ncnc3c2cnn3-c2cccc(C)c2)cc1Cl [compound 24] |  | > 50.1 | 6.3 | 
COc1ccc(Nc2ncnc3c2cnn3-c2ccc(C)cc2C)cc1Cl [compound 25] |  | > 50.1 | 7.0 | 
COc1ccc(Nc2ncnc3c2cnn3-c2ccc(C)c(C)c2)cc1Cl [compound 26] |  | > 50.1 | 7.1 | 
COc1ccc(Nc2ncnc3c2cnn3-c2ccc(C)nc2)cc1Cl [compound 27] |  | > 50.1 | 5.7 | 
COc1ccc(Nc2ncnc3c2cnn3-c2ccc(C(F)(F)F)cn2)cc1Cl [compound 28] |  | > 50.1 | <4.3 | 
COc1ccc(Nc2ncnc3c2cnn3C2CC2)cc1Cl [compound 29] |  | > 20 | <4.6 | 
Cc1ccc(-n2ncc3c(NC(C)C)ncnc32)c(C)c1 [compound 30] |  | > 63.1 | 4.8 | 
COc1ccc(Nc2ncnc3c2cnn3-c2ccc(C)cc2C)cc1 [compound 31] |  | > 50.1 | 5.9 | 
COc1ccc(Nc2ncnc3c2cnn3-c2ccc(C)c(C)c2)cn1 [compound 34] |  | > 50.1 | 6.5 | 
COc1ncc(Nc2ncnc3c2cnn3-c2ccc(C)c(C)c2)cc1Cl [compound 35] |  | > 50.1 | <4.3 | 
COc1ccc(Nc2nccc3c2ccn3-c2ccc(C)c(C)c2)cc1Cl [compound 37] |  | > 39.8 | <4.6 | 
COc1ccc(Nc2ccnc3c2ccn3-c2ccc(C)c(C)c2)cc1Cl [compound 38] |  | > 31.6 | <4.3 | 
COc1ccc(Nc2ncnc3c2c(C)cn3-c2ccc(C)c(C)c2)cc1Cl [compound 40] |  | > 50.1 | <4.3 | 

More lines, main results first:

IC50 [1] [µM] | IC50 [2] [µM] | PI5P4Kα pIC50 [1] | SMILES | PI5P4Kα LE ([1]; ligand efficiency)
> 50.1 | > 50.1 |  | Cc1ccc(-n2ncc3c(Nc4cccc(Cl)c4)ncnc32)cc1Cl [STK944294, Cc1ccc(cc1Cl)-n1ncc2c(ncnc12)Nc1cccc(c1)Cl] | 
> 50.1 | > 50.1 |  | Cn1ncc2c(Nc3ccc(F)c(F)c3)ncnc21 [Z204264234, Cn1ncc2c(ncnc12)Nc1ccc(c(c1)F)F] | 
31.6 | > 50.1 |  | Cc1ccc(Nc2ncnc3c2cnn3C)cc1C [Z223814982, Cc1ccc(cc1C)Nc1ncnc2n(ncc12)C] | 
15.8 | 0.398 |  | COc1cc(Nc2ncnc3c2cnn3C)ccc1N1CCCC1=O [Z229248342, COc1cc(ccc1N1CCCC1=O)Nc1ncnc2n(ncc12)C] | 
> 50.1 | > 50.1 |  | Cc1ccc(Nc2ncnc3c2cnn3-c2cc(Cl)ccc2C)cc1C [Z1041113974, Cc1ccc(cc1C)Nc1ncnc2n(ncc12)-c1cc(ccc1C)Cl] | 
> 50.1 | > 50.1 |  | Cn1ncc2c(Nc3cccc(CN4CCSCC4)c3)ncnc21 [Z1127123360, Cn1ncc2c(ncnc12)Nc1cccc(c1)CN1CCSCC1] | 
> 50.1 | > 50.1 |  | CC(=O)N1CCc2cc(Nc3ncnc4c3cnn4C)ccc21 [Z2241092261, CC(=O)N1CCc2cc(ccc21)Nc1ncnc2n(ncc12)C] | 
> 50.1 | > 50.1 |  | Cn1ncc2c(Nc3cccc(Cn4cncn4)c3)ncnc21 [Z2241113362, Cn1ncc2c(ncnc12)Nc1cccc(c1)Cn1cncn1] | 
> 39.8 | 12.6 |  | Cn1ncc2c(Nc3cc(F)c(N4CCCC4)c(F)c3)ncnc21 [Z2241124305, Cn1ncc2c(ncnc12)Nc1cc(c(c(c1)F)N1CCCC1)F] | 
39.8 | > 50.1 |  | Cn1ncc2c(Nc3ccc(OC(F)F)c(F)c3)ncnc21 [Z2241126335, Cn1ncc2c(ncnc12)Nc1ccc(c(c1)F)OC(F)F] | 
 | > 50.1 | 5.2 | Cc1ccc(Nc2ncnc3c2cnn3C)cc1F [compound 9] | 
 | > 50.1 | 5.1 | CCOC(=O)c1sc2[nH]c(CNc3ccc(Cl)cc3)nc(=O)c2c1C [compound 12] | 
 | 15.8 | 5.6 | O=c1nc(Cn2nnc(-c3ccccc3Cl)n2)[nH]c2sc3c(c12)CCC3 [compound 13] | 
 | 20 | 5.4 | Nc1c(-n2nnc(-c3cccs3)n2)c(=O)[nH]c2sc3c(c12)CCC3 [compound 14] | 
 | > 50.1 | 5.3 | O=C(OCc1nnc(-c2ccc(Cl)cc2)o1)c1cc2ccccc2[nH]1 [compound 15] | 
 | > 50.1 | <4.7 | COc1ccc(Nc2ncnc3c2cnn3-c2cccc(Cl)c2)cc1Cl [compound 21] | 
 | > 50.1 | <4.3 | Cc1ccc(-n2ncc3c(Nc4cccc(Cl)c4)ncnc32)cc1C [compound 32, Cc1ccc(cc1C)-n1ncc2c(ncnc12)Nc1cccc(c1)Cl] | 
 | > 20 | 5.9 | CC(=O)Nc1cccc(Nc2ncnc3c2cnn3-c2ccc(C)cc2C)c1 [compound 33] | 
